This is an account of results in patent US9265253B2, “Use of macrocyclic picolinamides as fungicides” (DOW AGROSCIENCES LLC, priority 2013, dated 2016).

In one assay the test system is Magnaporthe grisea; Anamorph: Pyricularia oryzae. As to the kind of experiment: whole plant or invertebrate. In kind it is in vivo. Conditions: 100 ppm; 1 Day Protectant; Rice Blast.
Regarding `COc1ccnc(C(=O)N[C@H]2CCC[C@H](Cc3ccc(F)cc3)[C@@H](OCC3CC3)[C@H](C)OC2=O)c1OCOC(C)=O` [Compound F98], the “Disease Control PYRIOR 1 DP” value was “A (80-100)”.

Still in this assay, the particulars now being: Pyricularia oryzae, topical, 24 h, read-out: Disease Control PYRIOR 1 DP.
Take `CCO[C@@H]1[C@@H](Cc2ccccc2)CCC[C@H](NC(=O)c2nccc(OC)c2OC(C)=O)C(=O)O[C@H]1C` [Compound F87]: the pest or weed control at 100 ppm lay within 80 to 100%.

Consider `COCC[C@H]1CCC[C@H](NC(=O)c2nccc(OC)c2OCOC(C)=O)C(=O)O[C@@H](C)[C@@H]1Oc1ccccc1` [Compound F130], for which the pest or weed control at 100 ppm lay within 80 to 100%.

As for `CCCO[C@@H]1[C@@H](CCC(C)C)CCC[C@H](NC(=O)c2nccc(OC)c2OC(C)=O)C(=O)O[C@H]1C` [Compound F64], the pest or weed control at 100 ppm lay within 80 to 100%.

`C=C[C@H]1CCC[C@H](NC(=O)c2nccc(OC)c2OC(C)=O)C(=O)O[C@@H](C)[C@@H]1Oc1ccccc1` [Compound F86]: the pest or weed control at 100 ppm fell in the range of 80 to 100%.

Take `COc1ccnc(C(=O)N[C@H]2CCC[C@H](CCBr)[C@@H](Oc3ccccc3)[C@H](C)OC2=O)c1OC(C)=O` [Compound F80]: the pest or weed control at 100 ppm lay in the range of 80 to 100%.

Take `COc1ccnc(C(=O)N[C@H]2CCC[C@H](Cc3ccccc3)[C@@H](OCC(C)C)[C@H](C)OC2=O)c1OC(C)=O` [Compound F70]: the pest or weed control at 100 ppm was 80 to 100%.

As for `COc1ccc(C[C@H]2CCC[C@H](NC(=O)c3nccc(OC)c3OCOC(C)=O)C(=O)O[C@@H](C)[C@@H]2OCC(C)C)cc1` [Compound F118], the pest or weed control at 100 ppm fell in the range of 80 to 100%.

Take `COc1ccnc(C(=O)N[C@H]2CCC[C@H](CC3CCCC3)[C@@H](OCC3CC3)[C@H](C)OC2=O)c1OCOC(C)=O` [Compound F117]: the pest or weed control at 100 ppm fell in the range of 80 to 100%.

With `COc1ccnc(C(=O)N[C@H]2CCC[C@H](Cc3ccccc3)[C@@H](Oc3ccccc3)[C@H](C)OC2=O)c1OCOC(C)=O` [Compound F108], the pest or weed control at 100 ppm is 80 to 100%.

Turning to `COc1ccnc(C(=O)N[C@H]2CCC[C@H](Cc3ccc(C)cc3)[C@@H](OCC(C)C)[C@H](C)OC2=O)c1OCOC(C)=O` [Compound F126], the pest or weed control at 100 ppm fell in the range of 80 to 100%.

For `CCCO[C@@H]1[C@@H](Cc2ccccc2)CCC[C@H](NC(=O)c2nccc(OC)c2OCOC(=O)COCC)C(=O)O[C@H]1C` [Compound F174], the pest or weed control at 100 ppm lay within 80 to 100%.

Regarding `COCC[C@H]1CCC[C@H](NC(=O)c2nccc(OC)c2OC(C)=O)C(=O)O[C@@H](C)[C@@H]1Oc1ccccc1` [Compound F78], the pest or weed control at 100 ppm lay in the range of 80 to 100%.

On to `CCCO[C@@H]1[C@@H](Cc2ccc(F)cc2)CCC[C@H](NC(=O)c2nccc(OC)c2OCOC(C)=O)C(=O)O[C@H]1C` [Compound F101], for which the pest or weed control at 100 ppm was in the range of 80 to 100%.

Regarding `COc1ccc(C[C@H]2CCC[C@H](NC(=O)c3nccc(OC)c3OCOC(C)=O)C(=O)O[C@@H](C)[C@@H]2Oc2ccccc2)cc1` [Compound F114], the pest or weed control at 100 ppm was 80 to 100%.

On to `CCCO[C@@H]1[C@@H](CCC(C)C)CCC[C@H](NC(=O)c2nccc(OC)c2OCOC(=O)COCC)C(=O)O[C@H]1C` [Compound F161], for which the pest or weed control at 100 ppm was in the range of 80 to 100%.

With `C=C[C@H]1CCC[C@H](NC(=O)c2nccc(OC)c2OCOC(C)=O)C(=O)O[C@@H](C)[C@@H]1Oc1ccccc1` [Compound F146], the pest or weed control at 100 ppm was in the range of 80 to 100%.

With `COc1ccnc(C(=O)N[C@H]2CCC[C@H](Cc3ccccc3)[C@@H](OCC3CC3)[C@H](C)OC2=O)c1OCOC(=O)C(C)C` [Compound F152], the pest or weed control at 100 ppm was in the range of 80 to 100%.

In the case of `COc1ccnc(C(=O)N[C@H]2CCC[C@H](CC(F)F)[C@@H](Oc3ccccc3)[C@H](C)OC2=O)c1OC(C)=O` [Compound F82], the pest or weed control at 100 ppm fell in the range of 80 to 100%.

For `CCCO[C@@H]1[C@@H](Cc2ccccc2)CCC[C@H](NC(=O)c2nccc(OC)c2OCOC(C)=O)C(=O)O[C@H]1C` [Compound F109], the pest or weed control at 100 ppm was in the range of 80 to 100%.

For `CCOCC(=O)OCOc1c(OC)ccnc1C(=O)N[C@H]1CCC[C@H](Cc2ccccc2)[C@@H](OCC(C)C)[C@H](C)OC1=O` [Compound F172], the pest or weed control at 100 ppm was in the range of 80 to 100%.
